# Test results: EP2251010A1, “Use of thiabendazole and derivatives thereof for the therapy of neurological conditions” (Sygnis Bioscience GmbH & Co. KG, priority 2009, dated 2010)
# Read-outs that look alike come from different tables or passages of the source.
# Experiments:
# neural stem cells = assay: In vitro differentiation assay on adult neuronal stem cells (beta-III-tubulin promoter dual luciferase reporter); type: cell-based, Wistar rats
# Source text: The neuroregenerative effect of the compounds according to the present invention can be assayed in vitro by measuring their stimulation of the differentiation of neuronal stem cells. Therefore, adult neuronal stem cells have to be isolated and subsequently cultivated in a suitable culture medium. After several passages in vitro the stem cells have to be co-transfected with a DNA construct coding for two discriminable reporter proteins one of them under the control of a constitutive promoter and the other under the control of a beta-III-tubulin promoter. The beta-III-tubulin promoter is induced during the process of neuronal stem cell differentiation; therefore the reporter protein under the control of this promoter serves as a marker for the stem cell differentiation in such an in vitro dual reporter assay (Schneider et al., J Clin Investigation 2005; 115:2083-2098). The person skilled in the art knows several suitable constitutive promoters such as the SV40-promoter, the TK-promoter, or the CMV-promoter. As discriminable reporter proteins for such a dual reporter assay one can use discriminable luciferases such as firefly luciferase and Renilla luciferase. The transfected cells have to be incubated with the test compound and with positive and negative controls for normalization and background correction. As a positive control compound one can use retinoic acid (Guan et al., Cell Tissue Res. 2001; 305:171-176; Jacobs et al., Proc. Natl. Acad. Sci. USA 2006; 103:3902-3907), a suitable negative control is the sham treatment of the cells. The neroregenerative activity of the test compound is determined as the ratio of the signal of the beta-III-tubulin promoter controlled reporter versus the signal of the constitutively expressed reporter and is expressed as fold from the control. This assay is suitable to assess the neuroregenerative activity of thiabendazole and derivatives thereof, but also can be used to screen for other potential neuroregenerative compounds. Preferably, such a screening can be used to test compounds which are already known to be suitable as a medicament in terms of its toxicology, bioavailability, solubility, stability etc.
# In vitro differentiation assay on adult neuronal stem cells with thiabendazole Neural stem cells were isolated from the subventricular zone of 4 week-old male Wistar rats as described (Maurer et al, Proteome Sci. 2003; 1:4). Cells were cultivated in Neurobasal medium (Invitrogen) supplemented with B27 (Invitrogen), 2mM L-glutamine, 100units/ml penicillin, 100units/ml streptomycin, 20ng/ml […] (EGF), 20ng/ml fibroblast growth factor-2 (FGF-2), and 2µg/ml heparin. Once a week the neural stem cells were passaged and experiments were performed after 4 weeks in vitro. For DNA transfection, the cells were dissociated and plated on poly-L-ornithin/laminin-coated 96-well plates at a density of 50.000 cells/well. Cotransfection with the pGL3-p-βIII-tubulin vector (100ng/well) and the pRL SV40 vector (100ng/well) was carried out according to the FuGene6 Transfection protocol (Roche). The pRL SV40 vector (Promega) served as an internal control vector.
# To amplify the class III β-tubulin gene promoter (fragment -450 - +54), rat genomic DNA was used as a template for PCR (Dennis et al., Gene 2002;294:269-277). The amplified fragment was inserted into the Mlu I/Xho I site of the pGL3-Basic firefly luciferase reporter vector (Promega) to generate the pGL3-p-βIII-tubulin experimental vector.
# After overnight incubation, the plate was decanted and given in 8-fold replicates fresh medium containing thiabendazole (Sigma) or vehicle. As a positive control for in vitro differentiation, stem cells were treated by adding 1 µM retinoic acid (Sigma) to the medium missing the mitogens.
# After 48hrs, the cells were harvested to prepare the cellular extracts for luciferase assay following the directions of the manufacturer (Promega). […]
# SH-SY5Y cells [1] = assay: In vitro anti-apoptosis assay (Caspase-Glo 3/7) on SH-SY5Y cells with staurosporine; type: cell-based, human; settings: for degree of apoptosis relative to the staurosporine control: SH-SY5Y cells, compound 1 µM plus staurosporine 0,5 µM, sham 26 %, Fig. 5
# primary cortical neurons = assay: In vitro anti-apoptosis assay (Caspase-Glo 3/7) on primary cortical neurons with staurosporine; type: cell-based, Wistar rat; settings: sham 11 %
# Source text: (§1) Neuroprotection is attainable via the inhibition of apoptosis of affected neurons. The anti-apoptotic effect of thiabendazole and its derivatives can be assayed in vitro by measuring the caspase-3 and caspase-7 activities. These members of the cysteine aspartic acid-specific protease (caspase) family play key effector roles in apoptosis in mammalian cells. Cortical neurons have to be isolated and subsequently cultivated in a suitable culture medium. […] Parallel approaches with staurosporine alone and sham treatment of the cells serve as […]. The assay allows evaluating whether the test compound can compensate either completely or partially for the apoptotic effect of staurosporine.
# (§2) The neuroprotective effect of compounds can be assayed in vitro by measuring caspase-3 and caspase-7 activities. These members of the cysteine aspartic acid-specific protease (caspase) family play a key effector role in apoptosis in mammalian cells.
# These cells were isolated from twelve to fourteen cortices dissected from Wistar rat embryos on E18. The tissue was dissociated using 0,25 mg/ml trypsin, 0,1 mg/ml EDTA (Sigma), 100 µg/ml DNase (Roche Diagnostics Corp.) in HBSS. The digestion was stopped using 3 parts MEM-medium containing 10 % fetal calf serum, 0,45 % D-(+)glucose, 1 mM sodium-pyruvate and 0,25 µM glutamate. The cells were singularized by 10 strokes with a burnished Pasteur-pipette. After centrifugation, the cell pellet was dissolved in 10 ml medium and plated at a density of 30000 cells per well on a 96-well plate coated with poly-L-lysine for caspase-assays. […] Incubation with staurosporine (SP; 0,5 µM) alone served as positive control and incubation with vehicle (sham) served as negative control.
# [2] = mouse; cited from earlier work
# [3] = rat; cited from earlier work
# [4] = pH 7.0; cited from earlier work
# [5] = rabbit; cited from earlier work
# SH-SY5Y neuronal cells = assay: In vitro viability assay (constitutive Renilla luciferase reporter); type: cell-based, human; settings: for viability of neuronal cells (Renilla luciferase activity): final concentration of 1 µM and of 10 µM, Fig. 7
# Method: The viability assay allows for further assessment of test compounds regarding their effect on cells such as neurons. Therefore, a stably transfected cell line (e.g. SH-SY5Y cells) with a reporter construct (e.g. a luciferase construct) has to be incubated with the test compound and in parallel with positive and negative controls (e.g. staurosporine and sham, respectively). Subsequently, the signal generated by the reporter construct serves as a readout for the viability of the cells in the presence of the test compound. The assay enables the evaluation of potential neurotoxic effects of the test compound itself.
# The effect of a compound on the viability of neuronal cells can be assayed in vitro by measuring the survival of neuronal cells transfected with a reporter construct under a constitutive promoter. SH-SY5Y neuronal cells stably transfected with a Renilla luciferase construct under the SV40 promoter were seeded in 96-well plates at a density of 2,5 x 10^4 cells per well. Following overnight incubation the cells were stimulated with medium containing thiabendazole or vehicle. Staurosporine (0,5 µM) served as positive control. The Renilla luciferase activity was measured 5 h later using a luminometer (Berthold Technologies, Mithras LB 940). Thiabendazole was tested in a range from 0,8 µM to 50 µM final concentration.
# Analogously, thiabendazole (A; Sigma) and various derivatives thereof (2-(1,3-thiazol-5-yl)-benzimidazole (B; ChemBridge Corporation), 4-(benzimidazol-2-yl)-1,3-thiazol-2-amine (C; ChemBridge Corporation), 2-(2-thienyl)-benzimidazole (D; ChemBridge Corporation), or 2-(1,3-thiazol-4-yl)-benzimidazole-5-ol (E; Witega GmbH), Fig. 8) have been analysed for their effect on the viability of neuronal cells. The compounds were tested in a final concentration of 1 µM and of 10 µM.
# [6] = man, oral, in 48 hours; cited from earlier work
# [7] = target: cytochrom P450 1A2 (CyP1A2) (Homo sapiens, UniProt P05177); settings: cited from earlier work
# Chain of cytochrom P450 1A2 (CyP1A2) (P05177 whole entry, species assumed): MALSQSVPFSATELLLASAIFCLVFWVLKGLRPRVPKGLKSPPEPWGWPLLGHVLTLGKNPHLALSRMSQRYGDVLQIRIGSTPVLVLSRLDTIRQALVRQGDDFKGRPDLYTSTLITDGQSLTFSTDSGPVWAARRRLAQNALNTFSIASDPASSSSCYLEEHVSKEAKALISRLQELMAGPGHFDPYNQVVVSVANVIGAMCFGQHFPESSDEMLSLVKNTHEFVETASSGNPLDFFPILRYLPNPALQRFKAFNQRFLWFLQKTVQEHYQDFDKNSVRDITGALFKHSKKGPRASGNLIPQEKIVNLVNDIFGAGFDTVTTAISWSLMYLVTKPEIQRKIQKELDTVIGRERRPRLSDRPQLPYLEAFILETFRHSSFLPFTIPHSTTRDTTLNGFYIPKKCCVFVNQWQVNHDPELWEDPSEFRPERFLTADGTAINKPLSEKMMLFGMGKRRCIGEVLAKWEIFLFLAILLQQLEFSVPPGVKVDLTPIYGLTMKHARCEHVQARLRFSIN
# SH-SY5Y cells [8] = assay: In vitro anti-apoptosis assay (Caspase-Glo 3/7) on SH-SY5Y cells with staurosporine; type: cell-based, human; settings: for staurosporine induced apoptosis (caspase-3 and caspase-7 activity): sham 10 %
# Source text: as §1, §2
# The human neuroblastoma cell-line SH-SY5Y (American Type Culture Collection) maintained in DMEM with high glucose supplemented with 20% FBS was used for the apoptosis assay. Alternatively one can analyse the apoptosis of primary cortical neurons which can be isolated from E18 rats and subsequently cultivated in suitable culture medium. 2,5 x 10^4 SH-SY5Y cells were seeded in 96-well plates and stimulated 24 h later with thiabendazole or vehicle in the presence of the apoptosis inducing compound staurosporine (0,1 µM, Calbiochem). After 5h incubation at 37 °C, caspase-Glo 3/7 reagent (Promega) containing luciferase and luminogenic substrate was added to the cells. The cleavage of the substrate by caspase-3 and caspase-7 was detected 30 min later using a luminometer (Berthold Technologies, Mithras LB 940). The Luminescence which is proportional to the amount of caspase activity serves as a measure for the apoptosis of the treated neurons. Thiabendazole was tested in a range from 0,8 µM to 100 µM final concentration.
# Incubation with staurosporine (SP; 0,5 µM) alone served as positive control and incubation with vehicle (sham) served as negative control.
# [9] = final concentrations of 1 µM and 10 µM, Fig. 4
# [10] = compound 1 µM plus staurosporine 0,5 µM, Fig. 6
smiles,measurement,setting,value
"Oc1ccc2nc(-c3cscn3)[nH]c2c1 [E, 2-(1,3-thiazol-4-yl)-benzimidazole-5-ol]",differentiation of neural stem cells to neurons (relative induction of the class III β-tubulin gene promoter controlled luciferase signal),neural stem cells; [9],significantly stimulate the differentiation of neural stem cells to neurons
same,degree of apoptosis relative to the staurosporine control,SH-SY5Y cells [1],83%
same,degree of apoptosis relative to the staurosporine control,primary cortical neurons; [10],60%
"c1ccc2[nH]c(-c3cncs3)nc2c1 [B, 2-(1,3-thiazol-5-yl)-benzimidazole]",differentiation of neural stem cells to neurons (relative induction of the class III β-tubulin gene promoter controlled luciferase signal),neural stem cells; [9],significantly stimulate the differentiation of neural stem cells to neurons
same,degree of apoptosis relative to the staurosporine control,SH-SY5Y cells [1],65%
same,degree of apoptosis relative to the staurosporine control,primary cortical neurons; [10],55%
"c1csc(-c2nc3ccccc3[nH]2)c1 [D, 2-(2-thienyl)-benzimidazole]",differentiation of neural stem cells to neurons (relative induction of the class III β-tubulin gene promoter controlled luciferase signal),neural stem cells; [9],significantly stimulate the differentiation of neural stem cells to neurons
same,degree of apoptosis relative to the staurosporine control,SH-SY5Y cells [1],65%
same,degree of apoptosis relative to the staurosporine control,primary cortical neurons; [10],49%
"c1ccc2[nH]c(-c3cscn3)nc2c1 [thiabendazole, 2-(4-thiazolyl)-benzimidazole]",oral LD 50,[2],"3,6 g/kg"
same,oral LD 50,[3],"3,1 g/kg"
same,differentiation of neural stem cells to neurons (relative induction of the class III β-tubulin gene promoter controlled luciferase signal),"neural stem cells; 0,2 to 100 µM final concentration, 48hrs, Fig. 1",significantly stimulates the differentiation of neural stem cells to neurons
same,differentiation of neural stem cells to neurons (relative induction of the class III β-tubulin gene promoter controlled luciferase signal),neural stem cells; [9],significantly stimulate the differentiation of neural stem cells to neurons
same,solubility in water,[4],approximately 50 mg/l
same,degree of apoptosis relative to the staurosporine control,SH-SY5Y cells [1],68%
same,apoptotic effect by themselves,SH-SY5Y cells [1]; compound without staurosporine,Neither thiabendazole nor derivatives thereof exhibited an apoptotic effect by themselves
same,oral LD 50,[5],"3,8 g/kg"
same,viability of the neuronal cells (Renilla luciferase activity),"SH-SY5Y neuronal cells; 0,8 µM to 50 µM final concentration, 5 h, Fig. 3",did not show any significant effect on the viability
same,viability of neuronal cells (Renilla luciferase activity),SH-SY5Y neuronal cells,did not show any significantly reduced viability
same,administered dose recovered from the feces,[6],about 5%
same,administered dose recovered from the urine,[6],about 90%
same,degree of apoptosis relative to the staurosporine control,primary cortical neurons; [10],58%
same,inhibitor of cytochrom P450 1A2 (CyP1A2),[7],potent inhibitor
same,staurosporine induced apoptosis (caspase-3 and caspase-7 activity),"SH-SY5Y cells [8]; 0,8 µM thiabendazole plus 0,1 µM staurosporine, 5h, staurosporine alone = 100 %",60%
same,staurosporine induced apoptosis (caspase-3 and caspase-7 activity),"SH-SY5Y cells [8]; 25 µM thiabendazole plus 0,1 µM staurosporine, 5h, staurosporine alone = 100 %",10%
same,staurosporine induced apoptosis (caspase-3 and caspase-7 activity),"SH-SY5Y cells [8]; 50 µM thiabendazole plus 0,1 µM staurosporine, 5h, staurosporine alone = 100 %",4%
same,staurosporine induced apoptosis (caspase-3 and caspase-7 activity),"SH-SY5Y cells [8]; 100 µM thiabendazole plus 0,1 µM staurosporine, 5h, staurosporine alone = 100 %",3%
same,staurosporine induced apoptosis (caspase-3 and caspase-7 activity),"SH-SY5Y cells [8]; 1,6 µM thiabendazole plus 0,1 µM staurosporine, 5h, staurosporine alone = 100 %",59%
same,staurosporine induced apoptosis (caspase-3 and caspase-7 activity),"SH-SY5Y cells [8]; 3,1 µM thiabendazole plus 0,1 µM staurosporine, 5h, staurosporine alone = 100 %",44%
same,staurosporine induced apoptosis (caspase-3 and caspase-7 activity),"SH-SY5Y cells [8]; 6,3 µM thiabendazole plus 0,1 µM staurosporine, 5h, staurosporine alone = 100 %",28%
same,staurosporine induced apoptosis (caspase-3 and caspase-7 activity),"SH-SY5Y cells [8]; 12,5 µM thiabendazole plus 0,1 µM staurosporine, 5h, staurosporine alone = 100 %",19%
CN[C@@H]1C[C@H]2O[C@@](C)([C@@H]1OC)n1c3ccccc3c3c4c(c5c6ccccc6n2c5c31)C(=O)NC4 [staurosporine],degree of apoptosis relative to the staurosporine control,"primary cortical neurons; staurosporine 0,5 µM alone (positive control)",100%
same,staurosporine induced apoptosis (caspase-3 and caspase-7 activity),"SH-SY5Y cells [8]; 0,1 µM staurosporine alone (reference, set to 100 %)",100%
same,degree of apoptosis relative to the staurosporine control,"SH-SY5Y cells [8]; SH-SY5Y cells, staurosporine 0,5 µM alone (positive control), sham 26 %",100%
"Nc1nc(-c2nc3ccccc3[nH]2)cs1 [C, 4-(benzimidazol-2-yl)-1,3-thiazol-2-amine]",differentiation of neural stem cells to neurons (relative induction of the class III β-tubulin gene promoter controlled luciferase signal),neural stem cells; [9],significantly stimulate the differentiation of neural stem cells to neurons
same,degree of apoptosis relative to the staurosporine control,SH-SY5Y cells [1],46%
same,viability of neuronal cells (Renilla luciferase activity),SH-SY5Y neuronal cells,did not show any significantly reduced viability
same,degree of apoptosis relative to the staurosporine control,primary cortical neurons; [10],52%
